The results in this text go back to patent US20090239860A1, “NOVEL BENZOFURAN DERIVATIVE, MEDICINAL COMPOSITION CONTAINING THE SAME, AND USES OF THESE” (priority 2004, published 2009).

Test [1] deals with T1, human adenosine A2A receptor (Homo sapiens, UniProt P29274).
T1 construct: expressed in transfected cells; host or cells: CHO-K1 (Chinese hamster ovary-K1), transient transfection with Lipofectamine 2000
The experiment in a line: Measurement of antagonistic action for human adenosine A2A receptor (inhibition of NECA-induced cAMP production in transfected CHO-K1 cells). It counts as cell-based. The note with it: human adenosine A2A receptor-expressed CHO-K1 cells, Ki from IC50 and Km for NECA. How it is done: Measurement of Antagonistic Action for Human Adenosine A2a Receptor
1) Preparation of Human Adenosine A2a Receptor-Expressed Cells
When Chinese hamster ovary-K1 (CHO-K1) cells were grown to subconfluence, they were treated with trypsin and suspended in D-MEM/F-12 medium (Invitrogen) including 10% fetal bovine serum (Sankojunyaku). The expression vector of human adenosine A2A receptor prepared in OPTI-MEM I (Invitrogen) and the transfection reagent of Lipofectamine 2000 (Invitrogen) were added to the cell suspension, and those cells were inoculated in poly-D-lysine-coated 96-well plates (5×10^4 cells/well). After incubating the plates for 24-30 hours at 37° C. in a humidified atmosphere with 5% CO2, they were used for the subsequent assays.
2) Measurement of the Inhibitory Effect on Human Adenosine A2a Receptor Activity
A test compound was dissolved in dimethyl sulfoxide (DMSO) and the resulting solution was added to D-MEM/F-12 medium supplemented with 2.5 unit/mL adenosine deaminase (Carbiochem) and 30 μM rolipram (Sigma), a phosphodiesterase inhibitor to prepare a solution of the test compound. Adenosine deaminase was used for the inactivation of adenosine derived from the cells.
The human adenosine A2A-expressed cells inoculated in the 96-well plates were washed twice with 150 μL/well of D-MEM/F-12 medium and a 50-μL aliquot of the test compound solution was then added to each well of the plates. After incubating the cells for 10 minutes at 37° C. in a humidified atmosphere with 5% CO2, a 50-μL aliquot of 1.2 nM 5′-N-ethylcarboxyamideadenosine (NECA; Sigma) including 2.5 unit/mL adenosine deaminase and 30 μM rolipram was added to each well of the plates and incubated for 25 minutes at 37° C. in a humidified atmosphere with 5% CO2. Stopping the reaction and the subsequent measurement of cAMP were performed by use of a cAMP enzyme-linked immunosorbent assay kit (Applied Biosystem). The chemoluminescence was measured by a Microplate Luminometer TR717 (Applied Biosystem). The experiments were carried out in duplicate wells.
Inhibitory rate of a test compound for NECA-induced cAMP production was found by the following formula:
Inhibitory rate (%)=[1−{(cAMP level with a test compound and NECA)−(cAMP level without a test compound and NECA)}/{(cAMP level with NECA)−(cAMP level without a test compound and NECA)}]×100
Using a Km value for NECA found by the measurement in the same plate as that of test compounds, an inhibitory constant Ki was found by the following formula: […]
For orientation: Changes in cAMP serve as a functional read-out for many G protein-coupled receptors.

Test [2] deals with Haloperidol-induced catalepsy in rats. Briefly: Haloperidol-induced catalepsy in rats (horizontal bar test). The note with it: male rats; compound 10 mg/kg orally in PEG400 2 hours before measurement; 5 hours after 1 mg/kg i.p. haloperidol; maximum 180 seconds (control 180.0). It counts as in vivo, rat. Here is the method:
Haloperidol-Induced Catalepsy in Rats
The effect of a compound on drug-induced catalepsy in rats was evaluated. Parkinson's disease is a movement disorder reflecting a decline in striatal dopamine due to the degeneration of dopaminergic neuron arising from the sbstantia nigra. When haloperidol, a blocker of dopamine D2 receptor is administered in rats, the drug induces catalepsy which is considered as one of the Parkinson's disease-like symptoms since haloperidol blocks the neurotransmission of dopaminergic neuron. Male rats (Crj: CD(SD)IGS, bodyweight: 210-260 g, Charles River Japan, Inc.) were used for the experiments. Three to five rats for each group were tested for catalepsy 5 hours after intraperitoneal administration of 1 mg/kg haloperidol (Serenace (registered mark); Dainippon Pharma), a dopamine D2 antagonist. Catalepsy was measured using the horizontal bar test (Morelli and Chiara, “Eur. J. Pharmacol.”, vol. 117, p. 179-185 (1985)). A compound (10 mg/kg) was dissolved in PEG400 and administered orally 2 hours prior to the measurement of catalepsy. PEG400 was also administered orally to the rats for the control group. The front feet of the rats were placed on a horizontal bar (3 mm in diameter) suspended 10-12 cm above a platform and their rear feet were placed on the platform. The degree of catalepsy produced in the rats was measured by how long it took for their front feet to remove themselves from the bar. A maximum of 180 seconds was allowed.

T1 sequence (P29274 whole entry): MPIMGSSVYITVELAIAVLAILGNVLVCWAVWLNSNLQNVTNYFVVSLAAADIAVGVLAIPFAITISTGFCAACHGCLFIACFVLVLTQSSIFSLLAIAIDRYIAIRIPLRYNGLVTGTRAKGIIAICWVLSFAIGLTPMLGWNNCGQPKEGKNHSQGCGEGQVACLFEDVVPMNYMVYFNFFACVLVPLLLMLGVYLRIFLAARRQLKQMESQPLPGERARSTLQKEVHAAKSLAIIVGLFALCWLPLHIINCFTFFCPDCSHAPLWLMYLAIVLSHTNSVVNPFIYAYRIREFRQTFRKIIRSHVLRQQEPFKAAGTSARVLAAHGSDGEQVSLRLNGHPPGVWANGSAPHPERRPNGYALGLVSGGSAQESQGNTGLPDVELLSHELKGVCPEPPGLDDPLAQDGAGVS

As a reminder, the Ki is a measure of affinity in units of concentration, obtained from inhibition or displacement. Low readings indicate tighter binding, high ones weaker binding. In turn, `NC(=O)c1oc2ccc(F)cc2c1NC(=O)C1CC1` [Compound 1-1, 3-Cyclopropanecarbonylamino-5-fluorobenzofuran-2-carboxamide] showed a Ki in test [1] of 8.5 nM.

Molecule `NC(=O)c1oc2ccc(Cl)cc2c1NC(=O)C1CC1` [Compound 1-2, 3-Cyclopropanecarbonylamino-5-chlorobenzofuran-2-carboxamide] had a Duration of catalepsy in test [2] of 91.6 s. In test [1], this molecule registered an inhibition constant Ki of 4.1 nM.

In test [1], `COc1ccc2c(NC(=O)c3cccc(F)c3)c(C(N)=O)oc2c1` [Compound 1-15] had an inhibition constant (Ki) of 6.5 nM. Turning to `COc1ccc2c(NC(=O)c3ccc(F)cc3)c(C(N)=O)oc2c1` [Compound 1-16], the Duration of catalepsy in test [2] came out at 116.4 s. In test [1], this molecule registered an inhibition constant Ki of 0.9 nM. The molecule `Cc1cccc(C(=O)Nc2c(C(N)=O)oc3ccc(F)cc23)c1` [Compound 1-36] returned a Ki in test [1] of 6.4 nM. As to `NC(=O)c1oc2cc(F)ccc2c1NC(=O)c1ccc2c(c1)OCO2` [Compound 1-91], the Ki in test [1] came to 6.5 nM.

Molecule `NC(=O)c1oc2ccc(Cl)cc2c1NC(=O)c1ccco1` [Compound 1-108] gave an inhibition constant (Ki) in test [1] of 9.3 nM. Take `NC(=O)c1oc2c(F)cc(F)cc2c1NC(=O)c1ccco1` [Compound 1-109]: in test [1], affinity was put at a Ki of 2.7 nM. On the same count and under the same terms, the value for `Cc1ccc(C(=O)Nc2c(C(N)=O)oc3c(F)cc(F)cc23)o1` [Compound 1-119] was 1.9 nM. Take `CCc1ccc(C(=O)Nc2c(C(N)=O)oc3ccc(F)cc23)o1` [Compound 1-121]: the Duration of catalepsy in test [2] was 48.2 s. For the same molecule, affinity in test [1] was put at a Ki of 0.8 nM. For `CCc1ccc(C(=O)Nc2c(C(N)=O)oc3c(F)cc(F)cc23)o1` [Compound 1-125], in test [1], the affinity corresponds to a Ki of 1.2 nM.

`COc1ccc2c(NC(=O)c3ccc(-c4ccccc4)o3)c(C(N)=O)oc2c1` [Compound 1-133]: the Ki in test [1] worked out at 3.2 nM.

For the molecule `NC(=O)c1oc2cc(F)ccc2c1NC(=O)c1ccc(Oc2ccccc2)nc1` [Compound 1-138], in test [1], the inhibitory constant (Ki) is 4.5 nM.

The molecule `COCC(=O)Nc1c(C(N)=O)oc2cc(OC)ccc12` [Compound 1-141] yielded a Ki in test [1] of 9.3 nM. For the molecule `NC(=O)c1oc2ccc(F)cc2c1NC(=O)COc1ccc(Cl)cc1` [Compound 1-145], affinity in test [1] was put at a Ki of 2.7 nM. In test [1], `NC(=O)c1oc2ccc(F)cc2c1NC(=O)COCc1ccccc1` [Compound 1-150] yielded an inhibition constant Ki of 2.2 nM. Molecule `NC(=O)c1oc2cc(Cl)ccc2c1NC(=O)C1CC1` [Compound 1-153] yielded a Ki in test [1] of 9.2 nM. Molecule `NC(=O)c1oc2c(F)cc(F)cc2c1NC(=O)C1CC1` [Compound 1-155] had a Duration of catalepsy in test [2] of 38.3 s. This molecule also came in with a Ki in test [1] of 8.1 nM. With `NC(=O)c1oc2c(Cl)cc(F)cc2c1NC(=O)C1CC1` [Compound 1-156], in test [1], the Ki is 9.8 nM. Same read-out and setting: in the case of `COc1cc(F)cc2c(NC(=O)C3CC3)c(C(N)=O)oc12` [Compound 1-159] it was 3.3 nM; in that of `NC(=O)c1oc2c(F)cc(F)cc2c1NC(=O)C1CCC1` [Compound 1-161], 7 nM. `COc1ccc(C(=O)Nc2c(C(N)=O)oc3c(OC)cc(F)cc23)cc1` [Compound 1-213] registered a Ki in test [1] of 2.1 nM. With `NC(=O)c1oc2c(F)cc(F)cc2c1NC(=O)Cc1ccccc1` [Compound 1-249], the inhibition constant Ki in test [1] was 4.6 nM. On the same count and under the same terms, in the case of `CN1CCN(C(=O)c2cccc(C(=O)Nc3c(C(N)=O)oc4c(F)cc(F)cc34)c2)CC1` [Compound 1-275] it was 0.5 nM; in that of `COc1ccc2c(NC(=O)c3cccc(CN4CCN(c5ccccc5)CC4)c3)c(C(N)=O)oc2c1` [Compound 2-1, 6-Methoxy-3-[3-(4-phenylpiperazin-1-ylmethyl)benzoylamino]-benzofuran-2-carboxamide], 8 nM.

In test [1], `COc1ccc2c(NC(=O)c3ccc(CSc4nccn4C)cc3)c(C(N)=O)oc2c1` [Compound 2-7] showed an inhibitory constant (Ki) of 8.6 nM.

As for `NC(=O)c1oc2c(F)cc(F)cc2c1NC(=O)c1ccc(CN2CCN(Cc3ccccc3)CC2)o1` [Compound 2-129], in test [1], the affinity, expressed as Ki, was 1.6 nM. The same measure, in the same setting: the value for `NC(=O)c1oc2c(F)cc(F)cc2c1NC(=O)c1ccc(CN2CCN(Cc3ccc4c(c3)OCO4)CC2)o1` [Compound 2-138] was 2 nM; that for `CC(C)(C)OC(=O)N1CCN(Cc2ccc(C(=O)Nc3c(C(N)=O)oc4c(F)cc(F)cc34)o2)CC1` [Compound 2-142, tert-butyl 4-[5-(2-carbamoyl-5,7-difluoro-benzofuran-3-ylcarbamoyl)furan-2-ylmethyl]piperazine-1-carboxylate] was 2 nM. The same measure, in the same setting: the value for `CC(O)c1ccc(C(=O)Nc2c(C(N)=O)oc3ccc(F)cc23)o1` (stereo not shown) [Compound 6-2, 5-Fluoro-3-[5-(1-hydroxyethyl)furan-2-carbonyl]-aminobenzofuran-2-carboxamide] was 1.1 nM.
